Experimental data as given in ChEMBL document CHEMBL1139096, “HeLa cells apoptosis induced by 1,7-dimethyl-1,4,7,10-tetraazacyclododecane” (2007).
Calls of active or inactive are those of the source. The rule behind the calls is not given here.

How the values were obtained:
HeLa [1] = experiment: Induction of apoptosis in human HeLa cells assessed as morphological changes at 100 umol/L; format: functional, cell-based
HeLa [2] = experiment: Cell cycle arrest in human HeLa cells assessed as accumulation at G0-G1 phase at 50 umol/L after 72 hrs; format: functional
HeLa [3] = experiment: Growth inhibition of human HeLa cells at 10 uM by MTT assay; format: functional; settings: read-out: GI
HeLa [4] = experiment: Induction of apoptosis in human HeLa cells at 300 umol/L by flow cytometry; format: functional
A549 [5] = experiment: Induction of apoptosis in human A549 cells at 200 umol/L by flow cytometry; format: functional
HeLa [6] = experiment: Induction of apoptosis in human HeLa cells assessed as DNA fragmentation at 200 umol/L by electrophoresis; format: functional, cell-based
A549 [7] = experiment: Growth inhibition of human A549 cells at 0.1 mM by MTT assay; format: functional; settings: read-out: GI
HeLa [8] = experiment: Induction of apoptosis in human HeLa cells assessed as morphological changes at 200 umol/L; format: functional, cell-based
HeLa [9] = experiment: Cell cycle arrest in human HeLa cells assessed as accumulation at S phase at 50 umol/L after 72 hrs; format: functional
HeLa [10] = experiment: Growth inhibition of human HeLa cells at 1 uM by MTT assay; format: functional; settings: read-out: GI
HeLa [11] = experiment: Cell cycle arrest in human HeLa cells assessed as accumulation at G0-G1 phase at 300 umol/L after 72 hrs; format: functional
HeLa [12] = experiment: Growth inhibition of human HeLa cells at 0.1 uM by MTT assay; format: functional
HeLa [13] = experiment: Cell cycle arrest in human HeLa cells assessed as accumulation at G2/M phase at 300 umol/L after 72 hrs; format: functional
A549 [14] = experiment: Growth inhibition of human A549 cells at 10 uM by MTT assay; format: functional; settings: read-out: GI
HeLa [15] = experiment: Induction of apoptosis in human HeLa cells assessed as morphological changes at 50 umol/L; format: functional, cell-based
A549 [16] = experiment: Growth inhibition of human A549 cells at 0.1 uM by MTT assay; format: functional; settings: read-out: GI
HeLa [17] = experiment: Growth inhibition of human HeLa cells at 0.1 mM by MTT assay; format: functional; settings: read-out: GI
HeLa [18] = experiment: Cell cycle arrest in human HeLa cells assessed as accumulation at G2/M phase at 200 umol/L after 72 hrs; format: functional
HeLa [19] = experiment: Cell cycle arrest in human HeLa cells assessed as accumulation at S phase at 300 umol/L after 72 hrs; format: functional
A549 [20] = experiment: Growth inhibition of human A549 cells at 1 uM by MTT assay; format: functional; settings: read-out: GI

In the case of CN1CCNCCN(C)CCNCC1, the Activity (HeLa [1]) was “Active”, the Activity (HeLa [2]) was 60.5% and the inhibition of growth at 10 µM (HeLa [3]) was 17.7%. The Activity (HeLa [4]) was 55%, the Activity (A549 [5]) was 7% and the Activity (HeLa [6]) was “Active”. For the same molecule, the inhibition of growth at 100 µM (A549 [7]) was 53.6%, the Activity (HeLa [8]) was “Active” and the Activity (HeLa [9]) was 33.3%. The inhibition of growth at 1 µM (HeLa [10]) was 9.8%, the Activity (HeLa [11]) was 84.7% and the growth inhibition (GI) (HeLa [12]) was 9%. For the same molecule, the Activity (HeLa [13]) was 15.3%, the inhibition of growth at 10 µM (A549 [14]) was 22.4% and the Activity (HeLa [15]) was “inactive”. It also gave an inhibition of growth at 0.1 µM (A549 [16]) of 11%, an inhibition of growth at 100 µM (HeLa [17]) of 63.1% and an Activity (HeLa [18]) of 25.2%. For the same molecule, the Activity (HeLa [19]) was 0% and the inhibition of growth at 1 µM (A549 [20]) was 13.7%.
